Consider 59 molecules from the METLIN SMRT retention time set (Domingo-Almenara et al. 2019).

Structures are written as SMILES.

The data set can be described thus: gradient 5% acetonitrile 3 min, to 50% in 2 min, to 85% in 15 min, held 3 min, 100 µL/min. To be noted: column: Zorbax Extend-C18 2.1 x 50 mm; eluents: water / acetonitrile, 0.1% formic acid. The method, boiled down:
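Using water and acetonitrile that each contained 0.1% formic acid, mixtures of ~100 pure standards were separated at 100 μL/min on a Zorbax Extend-C18 column (2.1 × 50 mm, 1.8 μm). The HPLC fed a quadrupole time-of-flight mass spectrometer working in positive and negative ionization mode, with dead and dwell volumes of 40 μL and 900 μL. Data were acquired over 3 months. Retention time was read from computationally picked adduct peaks after manual inspection of each.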
Turning to `CC(C)CCN1C[C@@H](CO)[C@H](c2nc(-c3cccnc3)no2)C1`, the RP-LC retention time is 583 s.

In turn, `Cc1cc(C)c(NC(=O)Cn2cc(-c3nc(C)no3)ccc2=O)c(C)c1` registered an RP-LC retention time of 712 s.

The molecule `O=C([C@@H]1C[C@H](Oc2ccccc2)CN1C(=O)c1n[nH]c2ccccc12)N1CCCC1` displayed an RP-LC retention time of 802 s.

Molecule `CCOc1ccccc1NC(=O)c1ccc(=O)n(Cc2ccccc2)n1` returned an RP-LC retention time of 980 s.

As to `CN(C)CCCN1c2ccccc2Sc2ccc(C(F)(F)F)cc21`, the RP-LC retention time was determined as 885 s.

As for `COc1ccc(NC(=O)NC2CCN(c3cc(N4CCCC4)cnn3)C2)cc1Cl` (centres undefined), the RP-LC retention time worked out at 584 s.

Molecule `O=C(NCC(F)(F)F)c1cnccn1` registered an RP-LC retention time of 597 s.

Molecule `O=S(=O)(c1cccc(F)c1)N1CC(c2nc(CCOCC3CC3)no2)C1` displayed an RP-LC retention time of 907 s.

`Cc1nnc2n1CCC(N(C)S(=O)(=O)c1ccccc1F)CC2` (centres undefined) displayed an RP-LC retention time of 634 s.

Molecule `COc1ccc(-c2nc3ncccn3c2Nc2ccc(C)c(C)c2)cc1` returned an RP-LC retention time of 784 s.

In the case of `CC(C)N1Cc2cc(C(=O)N3CCC(Cc4ccccc4)CC3)sc2C1`, the RP-LC retention time came out at 949 s.

For the molecule `CCn1c(=O)c2ccn(CC(=O)N3CCN(c4ccc(Cl)cc4)CC3)c2n(CC)c1=O`, the RP-LC retention time was 787 s.

`Cc1ccc(S(=O)(=O)N2CCC3(CC2)NCCN=C3NCc2ccccc2F)cc1` gave an RP-LC retention time of 709 s.

Molecule `CC(C)n1c(=O)oc2cc(-c3noc(/C=C/c4ccccc4)n3)ccc21` showed an RP-LC retention time of 1200 s.

Turning to `O=C(N[C@H]1C[C@@H]2C[C@H]1CN2S(=O)(=O)c1ccc2c(c1)CCC2)c1cccs1`, the RP-LC retention time came out at 943 s.

As for `O=C(c1csc(N2CCN(c3ccccc3)CC2)n1)N1CCCCC1`, the RP-LC retention time was found to be 1020 s.

The molecule `CCCN1C(=O)c2cccnc2Sc2cc(C(=O)N3CCC(C)CC3)ccc21` gave an RP-LC retention time of 856 s.

`O=C(NCc1cccs1)c1nc2ccccn2c1-c1ccccc1` had an RP-LC retention time of 853 s.

`CC(C)C(=O)Oc1ccc(CO)cc1[C@H](CCN(C(C)C)C(C)C)c1ccccc1` returned an RP-LC retention time of 830 s.

The molecule `Cc1ccc(Nc2c(-c3nc(C)no3)cnc3nc(C)ccc23)c(F)c1` registered an RP-LC retention time of 793 s.

As for `COc1ccc(OC)c(S(=O)(=O)N2CCCC(C(=O)NCc3ccccc3)C2)c1` (centres undefined), the RP-LC retention time worked out at 841 s.

In turn, `Cc1ccc(CNc2c(-c3ccc(N(C)C)cc3)nc3ncccn23)cc1` registered an RP-LC retention time of 889 s.

On to `CCC(C)NC(=O)C1CCC(=O)N(c2cc(OC)c(OC)c(OC)c2)C1c1ccc(OC)cc1` (centres undefined), for which the RP-LC retention time came out at 693 s.

In turn, `COc1ccc(NC(=O)Cn2c(=O)c(CCC(=O)NCC(C)C)nc3ccccc32)cc1` registered an RP-LC retention time of 798 s.

Molecule `Cc1ccc(NC(=O)CN2CCC(C(=O)N3CCN(C(=O)c4ccco4)CC3)CC2)cc1` came in with an RP-LC retention time of 569 s.

`O=C(NCc1ccc(F)cc1F)c1ccc2c(c1)nc1n2CCN(c2ccccc2)C1=O`: the RP-LC retention time was found to be 781 s.

In turn, `O=c1c2cc(-c3ccc4c(c3)OCO4)nn2ccn1Cc1nc(-c2ccc(F)cc2)no1` returned an RP-LC retention time of 1020 s.

On to `Cc1ccc(Cl)c(NC(=O)c2[nH]c3cc(C)sc3c2CN(C)C)c1`, for which the RP-LC retention time turned out to be 688 s.

`CCc1nnc2nc(N3CCN(C(=O)c4ccc5c(c4)OCO5)CC3)cc(C)n12` displayed an RP-LC retention time of 611 s.

`O=C(C1CC1)N1CCN(c2ccc(=O)n(-c3cccc(Cl)c3)n2)CC1` displayed an RP-LC retention time of 738 s.

Regarding `Cc1c(S(=O)(=O)N2CCN(c3ccccn3)CC2)cc(-c2nc(-c3ccccc3)cs2)n1C`, the RP-LC retention time was 885 s.

Molecule `CSc1nc2ccc3nc(NC(=O)C4=COCCO4)sc3c2s1` had an RP-LC retention time of 905 s.

In turn, `Cc1ccc(-n2nc(N3CCN(C(=O)c4ccc(Br)o4)CC3)ccc2=O)cc1` came in with an RP-LC retention time of 817 s.

As for `CCOC(=O)c1[nH]c(C)c(CN(Cc2ccco2)C(=O)Nc2cccc(F)c2)c1C`, the RP-LC retention time came to 990 s.

`Cc1ccc2c(Nc3cccc(C(C)C)c3)c(C(=O)N3CCC(C)CC3)cnc2n1` displayed an RP-LC retention time of 737 s.

The molecule `Cc1nnc2c(NC(=O)c3ccsc3)cccn12` had an RP-LC retention time of 606 s.

For `CC(C)n1c(CCNC(=O)CCc2ccccc2)nc2cccnc21`, the RP-LC retention time worked out at 716 s.

`CCOCCCNC(=O)N1[C@H]2CC[C@@H]1c1cnc(-c3ccc(F)cc3)nc1C2` displayed an RP-LC retention time of 800 s.

On to `Clc1cccc(CN2CCc3nc(N4CCN(c5ccccc5)CC4)ncc3C2)c1`, for which the RP-LC retention time was 775 s.

Molecule `CCOC(=O)CSc1nc2c(sc3ccccc32)c(=O)n1Cc1ccco1` registered an RP-LC retention time of 1040 s.

Turning to `CC(C)Oc1ccc(-c2noc(Cn3c(=O)n(-c4cccc(F)c4)c(=O)c4sccc43)n2)cc1`, the RP-LC retention time turned out to be 1090 s.

As to `O=C(NCCN1CCOCC1)C(=O)Nc1ccccc1Cl`, the RP-LC retention time was found to be 549 s.

In turn, `Cc1cccc(NC(=O)Nc2nccn(-c3cccc(Cl)c3)c2=O)c1` came in with an RP-LC retention time of 1040 s.

As to `COc1cc(CN2CCc3nc(N4CCN(c5ccccn5)CC4)ncc3C2)cc(OC)c1OC`, the RP-LC retention time was found to be 567 s.

`Cc1ccc(S(=O)(=O)N2C[C@@H](F)C[C@H]2C(=O)N2CCc3ccccc3C2)cc1F` showed an RP-LC retention time of 954 s.

Molecule `CCCCN(C)C(=O)c1cc2c(s1)N(CC)CCCC2` had an RP-LC retention time of 1100 s.

`Cc1nn(-c2ccc(C(=O)N3CCOCC3)cc2)c2c1C(=O)CC(C)(C)C2`: the RP-LC retention time worked out at 689 s.

The molecule `CCCN1C(=O)c2cc(S(=O)(=O)Nc3ccc(F)cc3C)ccc2Oc2cccnc21` had an RP-LC retention time of 1100 s.

In the case of `COc1cc(CN2CCC3(CC2)CC(O)CCO3)ccc1F` (centres undefined), the RP-LC retention time was determined as 541 s.

Molecule `O=C(NCC(F)(F)F)C(=O)NCC1(c2cccs2)CCCCC1` returned an RP-LC retention time of 804 s.

Molecule `O=C(Nc1ccc(Nc2ccc(-n3cccn3)nn2)cc1)Nc1ccccc1Cl` displayed an RP-LC retention time of 791 s.

In turn, `CC(=O)N1CCc2cc(C)c(S(=O)(=O)Nc3cccc(F)c3)cc21` showed an RP-LC retention time of 731 s.

`COc1cc(OC)c(NC(=O)C2CCN(C(=O)c3cc(-c4ccncc4)n[nH]3)CC2)cc1Cl` displayed an RP-LC retention time of 611 s.

The molecule `CC(=O)NS(=O)(=O)c1ccc2sc(C)nc2c1` gave an RP-LC retention time of 700 s.

Regarding `CCOC(=O)CCC(=O)N1CCC(Oc2nc3c(C)ccc(C)c3s2)CC1`, the RP-LC retention time came out at 1100 s.

`CC(C)(C)NC(=O)N1CCC(OC2CCN(Cc3ccccc3)CC2)CC1` showed an RP-LC retention time of 625 s.

`Cc1cc(C)cc(Oc2nccn3c(=O)n(CC(=O)NC4CCCCC4)nc23)c1`: the RP-LC retention time is 905 s.

In the case of `COc1ccc(NC(=O)CSc2nc(N3CCCCC3)nc3ccccc23)cc1Cl`, the RP-LC retention time came to 756 s.

`Cn1nccc1-c1cccc(-c2noc(C3CCN(S(=O)(=O)c4ccc(Cl)cc4)CC3)n2)c1` gave an RP-LC retention time of 1120 s.
